# From patent US8410104B2, “Pyridazines” (Hoffmann-La Roche Inc., priority 2009, dated 2013)
# Biological target: T1, human GABA A α5 receptor (α5β3γ2) (Homo sapiens, UniProt P18507+P31644)
# T1 construct: expressed in transfected cells; host or cells: HEK293 cells, transiently transfected; membranes prepared from cell pellets
# Test: [3H]flumazenil competition binding assay, human GABA A α5β3γ2 receptors in HEK293 cells
# Conditions: human receptors transiently transfected in HEK293; 0.5 nM [3H]flumazenil; means of two determinations; read-out: hKi GABA A α5
# Procedure: Membrane Preparation and Binding Assay
# The affinity of compounds at GABA A receptor subtypes was measured by competition for [^3H]flumazenil (85 Ci/mmol; Roche) binding to HEK293 cells expressing rat (stably transfected) or human (transiently transfected) receptors of composition α1β3γ2, α2β3γ2, α3β3γ2 and α5β3γ2.
# Cell pellets were suspended in Krebs-tris buffer (4.8 mM KCl, 1.2 mM CaCl2, 1.2 mM MgCl2, 120 mM NaCl, 15 mM Tris; pH 7.5; binding assay buffer), homogenized by polytron for ca. 20 sec on ice and centrifuged for 60 min at 4° C. (50000 g; Sorvall, rotor: SM24=20000 rpm). The cell pellets were re-suspended in Krebs-tris buffer and homogenized by polytron for ca. 15 sec on ice. Protein was measured (Bradford method, Bio-Rad) and aliquots of 1 mL were prepared and stored at −80° C.
# Radioligand binding assays were carried out in a volume of […] (96-well plates) which contained […] of cell membranes, [^3H]flumazenil at a concentration of 1 nM for α1, α2 and α3 subunits and 0.5 nM for α5 subunits and the test compound in the range of […]. Nonspecific binding was defined by 10^−5 M diazepam and typically represented less than 5% of the total binding. Assays were incubated to equilibrium for 1 hour at 4° C. and harvested onto GF/C uni-filters (Packard) by filtration using a Packard harvester and washing with ice-cold wash buffer (50 mM Tris; pH 7.5). After drying, filter-retained radioactivity was detected by liquid scintillation counting. Ki values were calculated using Excel-Fit (Microsoft) and are the means of two determinations.
row,Ki [nM],SMILES
1,6.9,"CCCCc1noc(C)c1COc1ccc(C(=O)NC2CCOC2)nn1 (racemic) [Example 8, Rac-6-(3-Butyl-5-methyl-isoxazol-4-ylmethoxy)-pyridazine-3-carboxylic acid (tetrahydro-furan-3-yl)-amide]"
2,12.8,"CCCCc1noc(C)c1COc1ccc(C(=O)NC(C)C)nn1 [Example 1, 6-(3-Butyl-5-methyl-isoxazol-4-ylmethoxy)-pyridazine-3-carboxylic acid isopropylamide]"
3,16.6,"CCCCc1noc(C)c1COc1ccc(C(=O)NC2CCOCC2)nn1 [Example 2, 6-(3-Butyl-5-methyl-isoxazol-4-ylmethoxy)-pyridazine-3-carboxylic acid (tetrahydro-pyran-4-yl)-amide]"
4,7,"CCCCc1noc(C)c1COc1ccc(C(=O)N[C@H](C)CO)nn1 [Example 3, 6-(3-Butyl-5-methyl-isoxazol-4-ylmethoxy)-pyridazine-3-carboxylic acid ((R)-2-hydroxy-1-methyl-ethyl)-amide]"
5,17.3,"CCCCc1noc(C)c1COc1ccc(C(=O)NCC(C)(C)O)nn1 [Example 4, 6-(3-Butyl-5-methyl-isoxazol-4-ylmethoxy)-pyridazine-3-carboxylic acid (2-hydroxy-2-methyl-propyl)-amide]"
6,17.3,"CCCCc1noc(C)c1COc1ccc(C(=O)N[C@@H](C)CO)nn1 [Example 5, 6-(3-Butyl-5-methyl-isoxazol-4-ylmethoxy)-pyridazine-3-carboxylic acid ((S)-2-hydroxy-1-methyl-ethyl)-amide]"
7,8.6,"CCCCc1noc(C)c1COc1ccc(C(=O)N[C@H]2CCOC2)nn1 [Example 6, (S)-6-(3-Butyl-5-methyl-isoxazol-4-ylmethoxy)-pyridazine-3-carboxylic acid (tetrahydro-furan-3-yl)-amide]"
8,10.4,"CCCCc1noc(C)c1COc1ccc(C(=O)NC(C)CO)nn1 (stereo not drawn) [Example 7, 6-(3-Butyl-5-methyl-isoxazol-4-ylmethoxy)-pyridazine-3-carboxylic acid (2-hydroxy-1-methyl-ethyl)-amide]"
9,7.3,"CCCCc1noc(C)c1COc1ccc(C(N)=O)nn1 [Example 9, 6-(3-Butyl-5-methyl-isoxazol-4-ylmethoxy)-pyridazine-3-carboxylic acid amide]"
